# Test results published in ChEMBL document CHEMBL1201862, “PubChem BioAssay data set” (2004).
# The source made the active and inactive calls.
# Columns and labels:
# [1] = target: T1, Corticotropin-releasing factor receptor 2/Corticotropin-releasing factor-binding protein (Homo sapiens, UniProt P24387+Q13324); test: activators of CRF receptor 2 with binding protein – uHTS hits, confirmation (AID 602473); assay type: functional; details: read-out: EC50_Mean
# T1 sequence (Q13324 whole entry): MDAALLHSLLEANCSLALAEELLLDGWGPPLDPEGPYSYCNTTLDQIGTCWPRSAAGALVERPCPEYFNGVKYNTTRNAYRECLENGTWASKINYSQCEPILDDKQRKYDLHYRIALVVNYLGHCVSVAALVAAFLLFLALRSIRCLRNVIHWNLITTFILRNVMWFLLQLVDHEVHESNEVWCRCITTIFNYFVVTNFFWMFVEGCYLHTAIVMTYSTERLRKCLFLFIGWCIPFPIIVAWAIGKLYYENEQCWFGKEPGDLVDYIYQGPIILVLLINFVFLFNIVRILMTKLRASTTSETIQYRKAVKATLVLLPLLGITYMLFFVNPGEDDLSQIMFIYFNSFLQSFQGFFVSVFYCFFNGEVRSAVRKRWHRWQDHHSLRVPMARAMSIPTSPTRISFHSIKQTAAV
# T1 sequence (P24387 whole entry): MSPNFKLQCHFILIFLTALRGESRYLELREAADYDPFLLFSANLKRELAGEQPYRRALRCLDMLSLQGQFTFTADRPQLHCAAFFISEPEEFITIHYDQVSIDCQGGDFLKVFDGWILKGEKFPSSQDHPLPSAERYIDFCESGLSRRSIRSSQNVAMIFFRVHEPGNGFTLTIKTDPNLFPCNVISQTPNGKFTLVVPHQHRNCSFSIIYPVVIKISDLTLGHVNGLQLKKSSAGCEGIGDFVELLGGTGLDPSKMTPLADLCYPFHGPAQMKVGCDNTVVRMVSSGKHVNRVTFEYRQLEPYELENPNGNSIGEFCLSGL
# Cytochrome P450 2C9 = Cytochrome P450 2C9 (Homo sapiens, UniProt P11712)
# Sequence of Cytochrome P450 2C9 (P11712 whole entry): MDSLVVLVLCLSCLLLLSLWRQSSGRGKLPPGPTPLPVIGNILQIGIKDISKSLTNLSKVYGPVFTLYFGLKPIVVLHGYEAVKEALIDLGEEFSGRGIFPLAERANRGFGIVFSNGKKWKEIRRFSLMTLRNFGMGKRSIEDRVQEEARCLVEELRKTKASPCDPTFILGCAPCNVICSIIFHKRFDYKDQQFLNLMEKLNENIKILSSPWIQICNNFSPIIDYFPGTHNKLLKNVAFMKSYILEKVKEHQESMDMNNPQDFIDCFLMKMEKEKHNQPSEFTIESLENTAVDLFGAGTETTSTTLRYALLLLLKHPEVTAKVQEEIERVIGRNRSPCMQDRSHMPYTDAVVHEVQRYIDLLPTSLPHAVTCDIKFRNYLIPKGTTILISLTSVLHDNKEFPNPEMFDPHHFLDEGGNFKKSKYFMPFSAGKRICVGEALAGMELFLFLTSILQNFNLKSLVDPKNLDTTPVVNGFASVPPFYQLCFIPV
# Cytochrome P450 2D6 = Cytochrome P450 2D6 (Homo sapiens, UniProt P10635);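 note: CYP2D6 member of a cytochrome P450 panel assay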
# Sequence of Cytochrome P450 2D6 (P10635 whole entry): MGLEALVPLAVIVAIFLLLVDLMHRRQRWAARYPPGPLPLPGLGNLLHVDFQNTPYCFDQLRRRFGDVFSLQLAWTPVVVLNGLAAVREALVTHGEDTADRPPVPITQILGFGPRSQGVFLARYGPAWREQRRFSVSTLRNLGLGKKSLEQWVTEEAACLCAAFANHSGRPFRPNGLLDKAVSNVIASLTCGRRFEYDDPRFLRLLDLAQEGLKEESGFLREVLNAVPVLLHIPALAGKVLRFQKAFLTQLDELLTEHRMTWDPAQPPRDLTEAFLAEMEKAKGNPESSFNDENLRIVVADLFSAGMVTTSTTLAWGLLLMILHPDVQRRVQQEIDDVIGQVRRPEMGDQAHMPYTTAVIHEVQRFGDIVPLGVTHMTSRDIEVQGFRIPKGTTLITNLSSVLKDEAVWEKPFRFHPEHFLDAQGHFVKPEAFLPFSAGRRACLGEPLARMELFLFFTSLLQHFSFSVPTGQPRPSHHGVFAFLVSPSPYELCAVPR
# [2] = growth suppression of PTEN-null colon cells, dose response, cell-based, HCT116 PTEN knockout (AID 1047); assay type: functional;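 note: HCT116 colon tumor cells with PTEN knocked out; cells exposed to compound for 60 hours before readout; potency for loss of cell viability measured by luminescence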
# [3] = growth suppression of beta-catenin-knockout colon cells, dose response, cell-based, HCT116, human colon tumor (AID 1045); assay type: functional;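 note: HCT116 colon tumor cells with beta catenin knocked out; cells exposed to compound for 60 hours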
# Cytochrome P450 3A4 = Cytochrome P450 3A4 (Homo sapiens, UniProt P08684);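 note: CYP3A4 tested as one member of a cytochrome P450 panel screen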
# Sequence of Cytochrome P450 3A4 (P08684 whole entry): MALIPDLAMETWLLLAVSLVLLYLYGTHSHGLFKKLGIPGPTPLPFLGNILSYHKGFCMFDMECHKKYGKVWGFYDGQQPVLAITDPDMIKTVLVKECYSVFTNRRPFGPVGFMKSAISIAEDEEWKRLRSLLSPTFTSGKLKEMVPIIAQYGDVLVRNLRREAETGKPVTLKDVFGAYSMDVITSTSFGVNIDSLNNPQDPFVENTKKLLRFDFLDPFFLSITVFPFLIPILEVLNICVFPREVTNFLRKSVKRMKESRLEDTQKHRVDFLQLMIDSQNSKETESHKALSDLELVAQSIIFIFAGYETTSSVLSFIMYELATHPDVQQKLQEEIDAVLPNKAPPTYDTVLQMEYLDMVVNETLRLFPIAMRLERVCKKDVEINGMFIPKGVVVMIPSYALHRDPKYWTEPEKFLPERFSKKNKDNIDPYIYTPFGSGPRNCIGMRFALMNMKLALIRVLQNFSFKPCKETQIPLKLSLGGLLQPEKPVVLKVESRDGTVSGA
# Cytochrome P450 1A2 = target: T2, Cytochrome P450 1A2 (Homo sapiens, UniProt P05177);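 note: PubChem cytochrome P450 panel assay, CYP1A2 panel member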
# T2 sequence (P05177 whole entry): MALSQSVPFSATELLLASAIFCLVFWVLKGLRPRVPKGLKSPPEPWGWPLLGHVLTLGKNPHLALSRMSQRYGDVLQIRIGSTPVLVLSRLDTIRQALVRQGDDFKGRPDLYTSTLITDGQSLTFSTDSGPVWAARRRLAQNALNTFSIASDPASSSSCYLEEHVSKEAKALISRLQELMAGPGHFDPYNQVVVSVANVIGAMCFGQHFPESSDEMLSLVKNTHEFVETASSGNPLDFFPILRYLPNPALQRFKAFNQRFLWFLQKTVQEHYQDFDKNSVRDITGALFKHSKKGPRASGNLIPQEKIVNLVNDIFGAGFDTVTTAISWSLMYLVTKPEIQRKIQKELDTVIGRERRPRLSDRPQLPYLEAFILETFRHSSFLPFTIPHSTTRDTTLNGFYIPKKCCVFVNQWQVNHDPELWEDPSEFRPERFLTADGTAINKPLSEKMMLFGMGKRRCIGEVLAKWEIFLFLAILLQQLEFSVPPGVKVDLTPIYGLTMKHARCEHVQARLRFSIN
# Cytochrome P450 2C19 = Cytochrome P450 2C19 (Homo sapiens, UniProt P33261); test: Cytochrome panel assay with activity outcomes. Panel member name: p450-cyp2c19 Compounds with AC50 equal or less than 10 uM are considered active; assay type: functional; details: read-out: AC50
# Sequence of Cytochrome P450 2C19 (P33261 whole entry): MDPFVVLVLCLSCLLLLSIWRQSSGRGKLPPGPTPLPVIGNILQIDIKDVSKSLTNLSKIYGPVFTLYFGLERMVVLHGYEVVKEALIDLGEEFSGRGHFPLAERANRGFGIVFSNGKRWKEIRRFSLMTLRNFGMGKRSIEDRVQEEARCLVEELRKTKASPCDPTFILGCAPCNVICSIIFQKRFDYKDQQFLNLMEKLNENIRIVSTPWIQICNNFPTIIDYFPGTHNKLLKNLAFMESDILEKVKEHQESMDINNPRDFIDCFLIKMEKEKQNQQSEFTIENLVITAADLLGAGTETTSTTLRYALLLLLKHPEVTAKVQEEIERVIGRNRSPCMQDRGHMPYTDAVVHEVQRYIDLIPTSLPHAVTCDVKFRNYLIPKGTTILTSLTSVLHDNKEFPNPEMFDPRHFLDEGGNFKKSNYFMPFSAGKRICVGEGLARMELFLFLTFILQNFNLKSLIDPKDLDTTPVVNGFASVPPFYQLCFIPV
# [4] = Luminescence Cell-Based Dose Retest to Confirm Inhibitors of Cancer Stem Cells. [Related pubchem assays (depositor defined):AID2717, AID2721]; assay type: functional; details: Homo sapiens
# [5] = inhibitors of intracellular T. cruzi replication, confirmation, NIH3T3 host cells, beta-gal luminescence (AID 2044); assay type: functional, cell-based;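 note: intracellular parasites grown in NIH/3T3 mouse fibroblasts as host cells; luminescent beta-galactosidase reporter signal from transgenic T. cruzi replicating inside host cells; inhibitors lower the luminescence signal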
# [6] = cytotoxicity toward NIH3T3 fibroblasts, dose response, counter-screen, cell-based, ATP luminescence, mouse fibroblasts (AID 2010); assay type: functional;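 note: cells exposed to compound for about 90 hours before reading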
# [7] = target: T3, Rac GTPase-activating protein 1 (Homo sapiens, UniProt Q9H0H5); test: MgcRacGAP GTPase-activating activity inhibitors, confirmation, biochemical, ADP Hunter fluorescence, primary and confirmatory (AID 624330); assay type: functional
# T3 sequence (Q9H0H5 whole entry): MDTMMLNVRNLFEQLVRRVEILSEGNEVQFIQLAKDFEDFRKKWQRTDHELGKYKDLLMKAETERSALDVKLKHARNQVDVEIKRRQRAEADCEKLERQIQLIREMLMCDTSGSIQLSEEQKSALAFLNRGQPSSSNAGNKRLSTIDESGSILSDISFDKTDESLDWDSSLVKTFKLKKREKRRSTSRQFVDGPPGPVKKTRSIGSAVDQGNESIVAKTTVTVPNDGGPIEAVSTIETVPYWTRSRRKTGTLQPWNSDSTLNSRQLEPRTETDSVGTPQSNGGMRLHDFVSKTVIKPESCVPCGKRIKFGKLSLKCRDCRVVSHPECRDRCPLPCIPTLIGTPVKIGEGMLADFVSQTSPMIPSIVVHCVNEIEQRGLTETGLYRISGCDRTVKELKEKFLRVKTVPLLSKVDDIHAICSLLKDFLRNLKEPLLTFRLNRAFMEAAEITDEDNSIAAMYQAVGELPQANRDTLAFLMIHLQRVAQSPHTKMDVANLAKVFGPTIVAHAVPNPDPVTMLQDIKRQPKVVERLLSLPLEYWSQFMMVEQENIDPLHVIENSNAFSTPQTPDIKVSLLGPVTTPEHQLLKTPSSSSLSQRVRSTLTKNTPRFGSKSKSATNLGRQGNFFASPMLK
# [8] = target: FAD-linked sulfhydryl oxidase ALR (Homo sapiens, UniProt P55789); test: inhibitors of human ALR sulfhydryl oxidase, dose response, biochemical, H2O2 detection, luminescence, cherry-pick (AID 493248)
# Sequence of FAD-linked sulfhydryl oxidase ALR (P55789 whole entry): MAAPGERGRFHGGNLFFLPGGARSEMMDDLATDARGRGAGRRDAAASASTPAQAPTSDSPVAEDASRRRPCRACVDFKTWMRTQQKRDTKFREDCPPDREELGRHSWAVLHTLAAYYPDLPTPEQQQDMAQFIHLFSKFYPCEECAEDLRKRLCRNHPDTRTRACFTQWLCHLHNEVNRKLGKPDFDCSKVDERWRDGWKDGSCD
# [9] = tested on: Streptococcus sp. 'group A'; test: growth inhibition of control SK(-) GAS strain, dose response, counter-screen for streptokinase expression inhibitor project, luminescence, kanamycin, BacTiterGlo, confirmation (AID 1900); assay type: functional, organism-based
# Streptokinase A = target: T4, Streptokinase A (Streptococcus pyogenes serotype M1, UniProt P10520); test: S. pyogenes streptokinase expression inhibitors, potency, dose response, plasminogen activation absorbance, OD405 (AID 1914); assay type: functional, Streptococcus pyogenes M1 GAS;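 note: secreted streptokinase activity via plasminogen activation per viability signal from cell pellet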
# T4 sequence (P10520 whole entry): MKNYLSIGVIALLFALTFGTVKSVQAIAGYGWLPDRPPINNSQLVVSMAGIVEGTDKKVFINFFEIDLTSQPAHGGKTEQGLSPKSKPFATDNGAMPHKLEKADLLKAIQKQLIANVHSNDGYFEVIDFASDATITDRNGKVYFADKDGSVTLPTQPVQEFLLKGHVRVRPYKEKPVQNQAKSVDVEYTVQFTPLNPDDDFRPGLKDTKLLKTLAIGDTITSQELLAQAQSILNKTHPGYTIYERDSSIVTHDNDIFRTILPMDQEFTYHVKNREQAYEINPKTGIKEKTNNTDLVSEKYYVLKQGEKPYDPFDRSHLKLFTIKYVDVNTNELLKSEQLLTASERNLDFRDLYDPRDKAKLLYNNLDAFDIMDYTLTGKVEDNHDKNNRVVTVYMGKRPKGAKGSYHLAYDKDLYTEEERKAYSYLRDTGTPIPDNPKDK
# Streptococcus = test: Group A Streptococcus viability loss, dose response, counter-screen for streptokinase expression inhibitor project, luminescence, BacTiterGlo (AID 1915); assay type: functional, organism-based;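 note: potency for reduction of bacterial viability or growth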
structure (smiles),measurement,setting,value
Cc1ccc2oc(=O)c(/C=C(\O)c3sc(C)nc3C)nc2c1,EC50,[1],7.67 µM (active)
COc1ccc(CCNC(=O)CCN2C(=O)COc3ccc(C)cc32)cc1OC,AC50,Cytochrome P450 2C9,28.2 µM (inconclusive)
same,AC50,Cytochrome P450 2D6,39.8 µM (inconclusive)
COC(=O)c1sccc1NC(=O)c1cc(-c2cccc(C)c2)nc2ccccc12,EC50,[2],6.74 µM (active)
same,EC50,[3],8.24 µM (active)
CCc1cc2c(SCC(=O)Nc3ccc(Cl)cn3)ncnc2s1,EC50,[2],31.9 µM (active)
same,EC50,[3],71.3 µM (active)
O=C1N/C(=C\c2ccc(N3CCOCC3)c(F)c2)C(=O)N1Cc1ccccc1,AC50,Cytochrome P450 3A4,0.794 µM (inconclusive)
same,AC50,Cytochrome P450 1A2,2 µM (inconclusive)
CC(C)C[C@H](NC(=O)N1CCCCCC1)C(=O)N[C@H](Cc1cn(C)c2ccccc12)C(=O)N[C@H](Cc1ccccn1)C(=O)O,AC50,Cytochrome P450 3A4,15.8 µM (inconclusive)
same,AC50,Cytochrome P450 1A2,39.8 µM (inconclusive)
O=C(Nc1ccc(NC(=O)c2sc3ccccc3c2Cl)cc1)c1ccco1,EC50,[2],9.27 µM (active)
same,EC50,[3],9.19 µM (active)
CC(=O)N1CCC2(CCCN(Cc3nccs3)C2)CC1,AC50,Cytochrome P450 3A4,39.8 µM (inconclusive)
same,AC50,Cytochrome P450 2D6,15.8 µM (inconclusive)
C[C@H](C(=O)c1ccncc1)c1ccccn1,AC50,Cytochrome P450 3A4,3.98 µM (inconclusive)
Cc1ccc(C)c2sc(NC(=O)c3ccc(N4C(=O)CCC4=O)cc3)nc12,EC50,[1],> 53 µM (inactive)
Cc1ccc(CSc2nnc(-c3ccncc3)n2CC2CCCO2)cc1 (stereo unspecified),AC50,Cytochrome P450 3A4,1.41 µM (inconclusive)
O=C(CSc1nnc(-c2ccc3c(c2)OCO3)o1)Nc1ncc(Cl)cc1Cl,EC50,[2],11.4 µM (active)
same,EC50,[3],9.18 µM (active)
COc1ccc(C(=O)/C=C(/C)N(C)C)cc1,AC50,Cytochrome P450 2C19,11.2 µM (inconclusive)
same,AC50,Cytochrome P450 3A4,5.01 µM (inconclusive)
CCc1ccc2c(c1)[C@H]1OCC[C@H]1[C@@H](c1cccs1)N2,AC50,[4],2.97 µM (active)
CCOc1ccc(NC(=O)c2cn(CC(C)C)c(=O)c3c2c2ccccc2n3C)cc1,EC50,[2],10 µM (active)
same,EC50,[3],13.4 µM (active)
COc1ccc(CSC2=C(C#N)C(=O)NC3(CCCCC3)S2)cc1,AC50,Cytochrome P450 2C9,3.16 µM (inconclusive)
CCc1cc2ccc(C)cc2nc1SCC(=O)c1ccc(NC(C)=O)cc1,AC50,[4],3.68 µM (active)
CCOc1ccc(OCc2cccc(C(=O)Nc3ccc(CN4CCCCC4)cc3)c2)cc1,AC50,[4],5.46 µM (active)
Cc1ccc(N2CC(C(=O)Nc3cc(C)on3)CC2=O)cc1 (stereo unspecified),AC50,Cytochrome P450 3A4,22.4 µM (inconclusive)
same,AC50,Cytochrome P450 2C9,11.2 µM (inconclusive)
CN(C)C(=O)c1ccc(-c2cncnc2Nc2ccccc2)cc1,AC50,Cytochrome P450 3A4,5.01 µM (inconclusive)
same,AC50,Cytochrome P450 1A2,31.6 µM (inconclusive)
Cn1c(N)c(C(=O)CSc2ccc3c(c2)OCCO3)c(=O)n(C)c1=O,AC50,Cytochrome P450 2C9,39.8 µM (inconclusive)
COc1ccc(CNc2ncnc3ccc(-c4cccc(C#N)c4)cc23)c(OC)c1,AC50,Cytochrome P450 2C9,0.0158 µM (inconclusive)
CC1CN(CCCCOc2cccc(Oc3ccccc3)c2)CC(C)O1 (stereo unspecified),AC50,[4],13.3 µM (active)
same,EC50,[5],1.01 µM (active)
same,EC50,[6],> 60 µM (inconclusive)
COc1cccc(-c2cc(C(F)(F)F)nc(N3CCN(c4ccccc4)CC3)n2)c1,AC50,Cytochrome P450 2C9,0.631 µM (inconclusive)
COc1cc2c(c(OC)c1OC)-c1ccc(O)c(=O)cc1[C@H](N)CC2,AC50,Cytochrome P450 3A4,3.16 µM (inconclusive)
COC(=O)c1sccc1-c1ccc(C(=O)Nc2cccc(Cl)c2)o1,AC50,Cytochrome P450 3A4,28.2 µM (inconclusive)
CCOC(=O)/C(=C/C=C1\Sc2ccccc2N1CC)C(C)=O,EC50,[1],11.5 µM (active)
C/C(=N\Nc1nc2ccccc2[nH]1)c1cccs1,IC50,[7],26.8 µM (active)
same,AC50,[8],0.02 µM (active)
C=CCc1cccc(CNc2nc3ccccc3n2CCC)c1O,AC50,[4],7.58 µM (active)
CC1(C)CC(=O)C(C2C3=C(CC(C)(C)CC3=O)Oc3c(Br)cc(Br)cc32)=C(O)C1 (stereo unspecified),EC50,[9],4.66 µM (active)
same,EC50,Streptokinase A,24.8 µM (active)
same,EC50,Streptococcus,12.2 µM (active)
same,EC50,[1],10.3 µM (active)
CN1CCN(c2ncnc3ccc(-c4cccc(C#N)c4)cc23)CC1,AC50,Cytochrome P450 3A4,25.1 µM (inconclusive)
Cc1ccc(NC(=O)c2cc([N+](=O)[O-])ccc2NCc2cccnc2)cc1Cl,AC50,Cytochrome P450 2C9,0.251 µM (inconclusive)
same,AC50,Cytochrome P450 2D6,0.794 µM (inconclusive)
same,EC50,[5],1.82 µM (active)
same,EC50,[6],> 60 µM (not active)
Brc1ccccc1OCCOCCOc1cccc2cccnc12,AC50,Cytochrome P450 2C19,3.16 µM (inconclusive)
same,AC50,Cytochrome P450 3A4,39.8 µM (inconclusive)
same,AC50,Cytochrome P450 2C9,11.2 µM (inconclusive)
COc1ccc(CNc2ccnc(-c3c(C)noc3C)n2)c(OC)c1,AC50,Cytochrome P450 2C9,1 µM (inconclusive)
same,AC50,Cytochrome P450 2D6,39.8 µM (inconclusive)
CCCn1c(=O)c(C(=O)NNC(=O)c2ccc(Cl)cc2Cl)c(O)c2ccccc21,EC50,[1],4.01 µM (active)
CCCSc1nc(SCC(=O)NCc2ccccc2)c2c3c(sc2n1)COC(C)(CC)C3 (stereo unspecified),AC50,Cytochrome P450 3A4,7.08 µM (inconclusive)
O=C(NCCc1ccccc1)c1cc(-c2ccccc2)c(N2CCOCC2)s1,AC50,[4],3.48 µM (active)
COc1ccc(C(C(=O)NC2CCCCC2)N(C(=O)CCCC(=O)Nc2ccccn2)c2ccc3c(c2)OCCO3)cc1 (stereo unspecified),AC50,Cytochrome P450 2C19,7.94 µM (inconclusive)
same,AC50,Cytochrome P450 2C9,14.1 µM (inconclusive)
CC/C(=C\C1CCCCC1)C(NP(=O)(c1ccccc1)c1ccccc1)c1ccccc1 (stereo unspecified),AC50,[4],2.58 µM (active)
same,EC50,[9],1.68 µM (active)
same,EC50,Streptococcus,2.26 µM (active)
